{
  "source": "patent US9113629B2",
  "about": "“4-amino-6-(4-substituted-phenyl)-picolinates and 6-amino-2-(4-substituted-phenyl)-pyrimidine-4-carboxylates and their use as herbicides” (DOW AGROSCIENCES LLC, priority 2013, dated 2015)",
  "test_in_all_cases": "Pre-emergent Test III, preemergent activity in wheat and barley",
  "key": {"APESV": {"system": "APESV", "format": "in vivo, Apera spica-venti", "procedure": "(§1) Pre-emergent Test III. Seeds of test species were planted into square plastic pots (10 cm wide) containing sandy loam soil. After planting, all pots were sub-irrigated 16 h prior to compound application. A weighed amount, determined by the highest rate to be tested, of each test compound was placed in a 25 mL glass vial and was dissolved in 4 mL of a 97:3 v/v mixture of acetone and DMSO to obtain concentrated stock solutions. […] The concentrated stock solutions obtained were diluted with 20 mL of an aqueous mixture containing water and 0.02% w/v (weight/volume) of Triton X-155 to obtain spray solutions containing the highest application rates. Additional application rates were obtained by serial dilution of 12 mL of the high rate solution into a solution containing 2 mL of 97:3 v/v mixture of acetone and DMSO and 10 mL of an aqueous mixture containing water and 0.02% w/v (weight/volume) of Triton X-155 to obtain 1⁄2×, 1⁄4×, 1⁄8× and 1/16× rates of the high rate. Compound requirements are based upon a 12 mL application volume at a rate of 187 liters per hectare (L/ha). Formulated compounds were applied to the soil surface with an overhead Mandel track sprayer equipped with […] nozzles calibrated to deliver 187 L/ha over an application area of 0.503 square meters. Control pots were sprayed in the same manner with the solvent blank. The treated pots and control pots were placed in a greenhouse as described above and watered through surface irrigation. After 21 d, the condition of the test pots as compared with that of the untreated pots was determined visually and scored on a scale of 0 to 100 percent where 0 corresponds to no herbicidal effect and 100 corresponds to plant death or lack of emergence from the soil. By applying the well-accepted probit analysis as described by J. Berkson in Journal of the American Statistical Society, 48, 565 (1953) and by D. Finney in “Probit Analysis” Cambridge University Press (1952), the above data can be used to calculate GR20, GR50, GR80 and GR90 values, which are defined as growth reduction factors that correspond to the effective dose of herbicide required to kill or control 20 percent, 50 percent, 80 percent or 90 percent, respectively, of a target plant."}, "LAMSS": {"system": "LAMSS", "format": "in vivo", "procedure": "as §1"}, "LOLSS": {"system": "LOLSS", "format": "in vivo, Lolium multiflorum, Lolium rigidum", "procedure": "as §1"}, "SETVI": {"system": "SETVI", "format": "in vivo, Setaria viridis", "procedure": "as §1"}, "HORSS": {"system": "HORSS", "format": "in vivo, Hordeum vulgare", "procedure": "as §1"}, "TRZSS": {"system": "TRZSS", "format": "in vivo, Triticum aestivum", "procedure": "as §1"}, "[1]": {"conditions": "21 days after application, dose to kill or control 50%, probit analysis"}, "[2]": {"conditions": "21 days after application, dose to kill or control 80%, probit analysis"}, "[3]": {"conditions": "21 days after application, dose to kill or control 20%, probit analysis"}},
  "data": [
    {"smiles": "C=Cc1c(C(=O)O)nc(-c2ccc(Cl)c(F)c2)c(F)c1N", "note": "[Compound 214]", "values": [
      {"measurement": "Visual Growth Reduction (%) 21 Days After Application, APESV", "setting": "APESV; 35 g ai/ha", "value": "C (75-84)"},
      {"measurement": "Visual Growth Reduction (%) 21 Days After Application, APESV", "setting": "APESV; 70 g ai/ha", "value": "A (95-100)"},
      {"measurement": "GR50 APESV", "setting": "APESV; [1]", "value": 13, "unit": "g ai/ha"},
      {"measurement": "GR80 APESV", "setting": "APESV; [2]", "value": 28, "unit": "g ai/ha"},
      {"measurement": "Visual Growth Reduction (%) 21 Days After Application, LAMSS", "setting": "LAMSS; 35 g ai/ha", "value": "A (95-100)"},
      {"measurement": "Visual Growth Reduction (%) 21 Days After Application, LAMSS", "setting": "LAMSS; 70 g ai/ha", "value": "A (95-100)"},
      {"measurement": "GR50 LAMSS", "setting": "LAMSS; [1]", "value": 1, "unit": "g ai/ha"},
      {"measurement": "GR80 LAMSS", "setting": "LAMSS; [2]", "value": 2, "unit": "g ai/ha"},
      {"measurement": "Visual Growth Reduction (%) 21 Days After Application, LOLSS", "setting": "LOLSS; 35 g ai/ha", "value": "G (0-29)"},
      {"measurement": "Visual Growth Reduction (%) 21 Days After Application, LOLSS", "setting": "LOLSS; 70 g ai/ha", "value": "E (45-59)"},
      {"measurement": "GR50 LOLSS", "setting": "LOLSS; [1]", "value": ">70", "unit": "g ai/ha"},
      {"measurement": "GR80 LOLSS", "setting": "LOLSS; [2]", "value": ">70", "unit": "g ai/ha"},
      {"measurement": "Visual Growth Reduction (%) 21 Days After Application, SETVI", "setting": "SETVI; 35 g ai/ha", "value": "G (0-29)"},
      {"measurement": "Visual Growth Reduction (%) 21 Days After Application, SETVI", "setting": "SETVI; 70 g ai/ha", "value": "G (0-29)"},
      {"measurement": "GR50 SETVI", "setting": "SETVI; [1]", "value": ">70", "unit": "g ai/ha"},
      {"measurement": "GR80 SETVI", "setting": "SETVI; [2]", "value": ">70", "unit": "g ai/ha"},
      {"measurement": "Visual Growth Reduction (%) 21 Days After Application, HORSS", "setting": "HORSS; 35 g ai/ha", "value": "G (0-29)"},
      {"measurement": "Visual Growth Reduction (%) 21 Days After Application, HORSS", "setting": "HORSS; 70 g ai/ha", "value": "G (0-29)"},
      {"measurement": "GR20 HORSS", "setting": "HORSS; [3]", "value": 93, "unit": "g ai/ha"},
      {"measurement": "Visual Growth Reduction (%) 21 Days After Application, TRZSS", "setting": "TRZSS; 35 g ai/ha", "value": "G (0-29)"},
      {"measurement": "Visual Growth Reduction (%) 21 Days After Application, TRZSS", "setting": "TRZSS; 70 g ai/ha", "value": "F (30-44)"},
      {"measurement": "GR20 TRZSS", "setting": "TRZSS; [3]", "value": 28, "unit": "g ai/ha"}
    ]}
  ]
}
